In US5002942A, “1,5-benzothiazepine derivatives, their preparation and their use in the treatment of cardiovascular disorders” (Sankyo Company, Limited, priority 1988, dated 1991):

Legend:
[1] = system: SHR (spontaneously hypertensive rats); assay: Antihypertensive action in SHR; assay type: in vivo; settings: conscious male SHR, hydrochlorides, 24 hours
Procedure: Male SHR (spontaneously hypertensive rats), 23 to 30 weeks old, were anesthesized with sodium pentobarbital 50 mg/kg intraperitoneal administration), and a polyethylene cannula was inserted through the left femoral artery into the abdominal aorta. The other end of the cannula was led out of the body and fixed at the back of the neck. One week after the operation, when the animal had recovered from the stress of the surgery, the other end of the cannula was connected to a blood pressure measuring device, which was constructed according to the directions of Laffan et al. [Laffan, P.J., Peterson A., Hitch S,W. and Jeunelot C., Cardiovascular Res. 6. 319-324 (1972)], but with slight modifications. The blood pressure and heart rate of the conscious and […] SHR were measured. After the blood pressure and the heart rate had stabilised for more than one hour, the test drug was administered by […]. After administration of the test sample, the blood pressure and the heart rate were measured every 15 minutes over a period of 24 hours. The maximum decrease in blood pressure and the half-time of the blood pressure lowering activity thus determined are shown in Table 6.
All of the test compounds were employed as the hydrochlorides.

[2] = molecular target: T1, calcium channel (Cavia porcellus, UniProt O35505); assay: Calcium channel blocking action (calcium-induced contraction of excised taenia coli); settings: 0.5 h, test compound 10^-8 g/ml, 30 minutes incubation, guinea pig taenia coli, hydrochlorides (Example 34: fumarate)
T1 construct: The taenia coli excised from a male guinea pig; from tissue; host or cells: guinea pig taenia coli (excised smooth muscle strip)
T1 sequence (O35505 whole entry): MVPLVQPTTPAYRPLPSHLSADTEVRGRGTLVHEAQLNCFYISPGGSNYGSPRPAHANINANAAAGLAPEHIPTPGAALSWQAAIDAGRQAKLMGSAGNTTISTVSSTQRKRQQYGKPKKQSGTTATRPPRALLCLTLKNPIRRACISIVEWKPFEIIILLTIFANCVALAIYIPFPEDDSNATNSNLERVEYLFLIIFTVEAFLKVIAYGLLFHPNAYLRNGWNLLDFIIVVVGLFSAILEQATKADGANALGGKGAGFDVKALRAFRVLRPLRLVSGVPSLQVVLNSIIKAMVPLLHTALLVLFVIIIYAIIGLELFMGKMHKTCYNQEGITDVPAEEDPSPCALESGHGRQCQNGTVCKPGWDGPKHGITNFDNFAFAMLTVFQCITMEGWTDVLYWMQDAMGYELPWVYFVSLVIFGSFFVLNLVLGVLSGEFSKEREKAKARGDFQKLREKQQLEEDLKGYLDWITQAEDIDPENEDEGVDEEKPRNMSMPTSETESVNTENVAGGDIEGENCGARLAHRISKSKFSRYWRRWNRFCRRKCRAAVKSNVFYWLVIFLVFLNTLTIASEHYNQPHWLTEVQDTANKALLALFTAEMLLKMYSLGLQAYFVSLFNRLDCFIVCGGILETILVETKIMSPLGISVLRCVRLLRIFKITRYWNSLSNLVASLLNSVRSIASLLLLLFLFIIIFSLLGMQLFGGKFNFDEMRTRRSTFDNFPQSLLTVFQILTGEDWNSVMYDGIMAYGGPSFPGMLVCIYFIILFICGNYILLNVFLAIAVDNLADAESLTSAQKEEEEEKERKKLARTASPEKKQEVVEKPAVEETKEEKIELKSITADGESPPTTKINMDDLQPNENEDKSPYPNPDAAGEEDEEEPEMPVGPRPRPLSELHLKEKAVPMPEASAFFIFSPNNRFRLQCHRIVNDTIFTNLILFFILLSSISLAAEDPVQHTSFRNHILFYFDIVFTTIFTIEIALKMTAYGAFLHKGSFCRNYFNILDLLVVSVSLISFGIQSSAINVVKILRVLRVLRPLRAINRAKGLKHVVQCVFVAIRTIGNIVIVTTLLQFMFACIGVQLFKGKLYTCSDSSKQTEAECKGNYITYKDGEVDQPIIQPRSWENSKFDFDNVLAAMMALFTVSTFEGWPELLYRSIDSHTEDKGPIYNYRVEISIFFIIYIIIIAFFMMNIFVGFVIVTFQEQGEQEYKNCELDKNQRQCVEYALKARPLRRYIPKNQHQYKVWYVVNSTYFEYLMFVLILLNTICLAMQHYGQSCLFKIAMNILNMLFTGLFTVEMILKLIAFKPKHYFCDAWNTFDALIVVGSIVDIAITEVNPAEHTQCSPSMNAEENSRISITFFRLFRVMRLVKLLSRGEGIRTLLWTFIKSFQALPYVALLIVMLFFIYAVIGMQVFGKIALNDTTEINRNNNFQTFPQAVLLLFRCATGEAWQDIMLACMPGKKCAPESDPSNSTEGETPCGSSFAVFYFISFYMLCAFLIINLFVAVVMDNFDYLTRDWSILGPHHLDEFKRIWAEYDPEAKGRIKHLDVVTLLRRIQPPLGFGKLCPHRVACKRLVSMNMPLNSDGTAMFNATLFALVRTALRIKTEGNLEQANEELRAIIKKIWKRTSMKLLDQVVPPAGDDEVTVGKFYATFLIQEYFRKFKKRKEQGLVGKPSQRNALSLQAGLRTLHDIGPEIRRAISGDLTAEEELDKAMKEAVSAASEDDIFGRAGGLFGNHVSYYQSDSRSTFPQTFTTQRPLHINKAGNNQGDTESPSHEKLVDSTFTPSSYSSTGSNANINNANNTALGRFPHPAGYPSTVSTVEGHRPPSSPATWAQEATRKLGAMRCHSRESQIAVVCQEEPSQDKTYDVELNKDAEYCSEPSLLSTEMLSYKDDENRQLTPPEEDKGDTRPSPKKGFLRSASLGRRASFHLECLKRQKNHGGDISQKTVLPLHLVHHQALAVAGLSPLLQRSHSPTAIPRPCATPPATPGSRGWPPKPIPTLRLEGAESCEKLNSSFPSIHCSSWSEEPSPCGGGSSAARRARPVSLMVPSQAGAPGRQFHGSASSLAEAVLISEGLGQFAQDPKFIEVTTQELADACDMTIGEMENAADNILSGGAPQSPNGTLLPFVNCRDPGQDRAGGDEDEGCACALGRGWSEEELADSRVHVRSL
Procedure: The taenia coli excised from a male guinea pig weighing from 250 to 300 g was cut into a length of 6 to 7 mm and suspended in an organ bath filled with Tylord's solution (sodium chloride 97 mM, potassium chloride 40 mM, sodium hydrogen carbonate 11.9 mM, disodium hydrogen phosphate 0.4 mM, glucose 5.5 mM; pH 7.1). The bath solution contained no calcium ions and was aerated with a mixture of 95% oxygen and 5% carbon dioxide by volume. To this solution were added 10 and 30 mM solutions of calcium chloride at 30 minute intervals to obtain a final concentration of 0.4 mM. The tension which developed 1n the taenia coli was measured by an isometric transducer. The organ bath was then washed twice or more with Tylord's solution containing no calcium ions after which it was allowed to equilibrate for 30 minutes. After the muscle had stabilised, test compound dissolved in physiological saline was added to the bath to a final concentration of 10^-8 g/ml, and the bath was incubated for 30 minutes. 30 and 100 mM solutions of calcium chloride were again added to the bath, and the developed tension was measured. From the magnitude of the calcium-induced contraction before and after the test drug had been added the inhibitory rate was calculated using the following formula: [formula] where: Co=contraction induced by calcium ion before a test drug was added: and
Ct=contraction induced by calcium ion after the test drug had been added.
In addition to the compounds of the invention, we also carried out the same test with the following compounds of the prior art: (±)-diltiazem, […], (±)-8-chlorodiltiazem (8-Cl-diltiazem). (±)-8-methoxydiltiazem (8-MeO-diltiazem) and (±)-8-benzyloxydiltiazem (8-BzO-diltiazem).
In the Table, the compounds of the invention are identified by the number of the one of the foregoing Examples in which the compound was prepared. The prior art compounds are identified by the abbreviated generic names shown above in parentheses.
All of the compounds except for that of Example 34 were employed as the hydrochlorides; that of Example 34 was employed as the fumarate.

SMILES	Half-time of hypotension action ([1]; Dose 3 mg/kg) [h]	change in vivo at 3 mg/kg ([1]; Rattus norvegicus, po, Dose 3 mg/kg, read-out: Maximum hypotension (%)) [%]	inhibition at 0.01 µg/mL [2] [%]	Half-time of hypotension action ([1]; Dose 10 mg/kg) [h]	change in vivo at 10 mg/kg ([1]; Rattus norvegicus, po, Dose 10 mg/kg, read-out: Maximum hypotension (%)) [%]	Half-time of hypotension action ([1]; Dose 30 mg/kg) [h]	change in vivo at 30 mg/kg ([1]; Rattus norvegicus, po, Dose 30 mg/kg, read-out: Maximum hypotension (%)) [%]
COc1ccc([C@@H]2Sc3cc(Oc4ccccc4)ccc3N(CCN(C)C)C(=O)[C@@H]2OC(C)=O)cc1F [Example 16, (2S, 3S)-3-Acetoxy-5-(2-dimethylaminoethyl)-2-(3-fluoro-4-methoxyphenvl)-2,3-dihydro-8-phenoxy-1,5-benzothiazepin-4(5H)-one]	9.4	-21	80				
COc1ccc([C@@H]2Sc3cc(Cc4ccc(F)cc4)ccc3N(CCN(C)C)C(=O)[C@@H]2OC(C)=O)cc1 [Example 38, (2S, 3S)-3-Acetoxy-5-(2-dimethylaminoethyl)-8-(4-fluoro-benzyl)-2,3-dihydro-2-(4-methoxyphenyl)-1,5-benzothiazepin-4(5H)-one]			69	11.8	-32		
COc1ccc([C@@H]2Sc3cc(OCc4ccccc4)ccc3N(CCN(C)C)C(=O)[C@@H]2OC(C)=O)cc1 (racemic) [(±)-8-BzO-diltiazem, cis-3-acetoxy-8-benzyloxy-2,3-dihydro-5-(2-dimethylaminoethyl)-2-(4-methoxyphenyl)-1,5-benzothiazepin-4(5H)-one, reference compound]			55			7.7	-19
